Results published in ChEMBL document CHEMBL2157914, “Synthesis, anti-inflammatory and antimicrobial evaluation of novel 1-acetyl-3,5-diaryl-4,5-dihydro (1H) pyrazole derivatives bearing urea, thiourea and sulfonamide moieties” (2012).
≈ marks a conversion by molar mass, not a printed value. Calls of active or inactive are those of the source. No cut-off for these calls is given here.

What follows are compounds tested on Candida albicans (assay: Antifungal activity against Candida albicans MTCC 227 after 2 to 3 days by agar well diffusion method). Details: not given.
Assay type: functional
For `COc1ccc(C2=NN(C(C)=O)C(c3ccc(NC(=O)Nc4ccccc4OC(F)(F)F)cc3)C2)cc1OC` (stereo not given), the MIC was 40 µg/mL (≈ 73.7 µM). Compound `COc1ccc(C2=NN(C(C)=O)C(c3ccc(NC(=O)Nc4ccccc4C(F)(F)F)cc3)C2)cc1OC` (stereo not given) has an MIC of 80 µg/mL (≈ 152 µM). In the case of `COc1ccc(C2=NN(C(C)=O)C(c3ccc(NC(=O)Nc4ccc(OC(F)(F)F)cc4)cc3)C2)cc1OC` (stereo not given), the MIC is reported as 25 µg/mL (≈ 46.1 µM). Compound `COc1ccc(C2=NN(C(C)=O)C(c3ccc(NS(=O)(=O)c4ccc(C)cc4)cc3)C2)cc1OC` (stereo not given) has an MIC of 70 µg/mL (≈ 142 µM). `COc1ccc(C2=NN(C(C)=O)C(c3ccc(NC(=O)Nc4ccc(C(C)C)cc4)cc3)C2)cc1OC` (stereo not given) showed an MIC of 20 µg/mL (≈ 40 µM). For `COc1ccc(C2=NN(C(C)=O)C(c3ccc(NC(=S)Nc4ccccc4F)cc3)C2)cc1OC` (stereo not given), the MIC was 80 µg/mL (≈ 162 µM).

What follows are compounds tested on Aspergillus flavus (assay: Antifungal activity against Aspergillus flavus MTCC 277 after 2 to 3 days by agar well diffusion method). Details: not given.
Assay type: functional
`COc1ccc(C2=NN(C(C)=O)C(c3ccc(NC(=O)Nc4ccccc4OC(F)(F)F)cc3)C2)cc1OC` (stereo not given) gave an MIC of 30 µg/mL (≈ 55.3 µM). `COc1ccc(C2=NN(C(C)=O)C(c3ccc(NC(=O)Nc4ccccc4C(F)(F)F)cc3)C2)cc1OC` (stereo not given) gave an MIC of 80 µg/mL (≈ 152 µM). Work on `COc1ccc(C2=NN(C(C)=O)C(c3ccc(NC(=O)Nc4ccc(OC(F)(F)F)cc4)cc3)C2)cc1OC` (stereo not given) yielded an MIC of 20 µg/mL (≈ 36.9 µM). `COc1ccc(C2=NN(C(C)=O)C(c3ccc(NS(=O)(=O)c4ccc(C)cc4)cc3)C2)cc1OC` (stereo not given) was tested, and the MIC was 90 µg/mL (≈ 182 µM). Work on `COc1ccc(C2=NN(C(C)=O)C(c3ccc(NC(=O)Nc4ccc(C(C)C)cc4)cc3)C2)cc1OC` (stereo not given) yielded an MIC of 20 µg/mL (≈ 40 µM). Work on `COc1ccc(C2=NN(C(C)=O)C(c3ccc(NC(=S)Nc4ccccc4F)cc3)C2)cc1OC` (stereo not given) yielded an MIC of 90 µg/mL (≈ 183 µM).

The compounds below were run on THP-1 (assay: Antiinflammatory activity in human THP1 cells assessed as inhibition of LPS-stimulated IL-6 production at 10 uM incubated for 30 mins prior to LPS-challenge measured 24 hrs post LPS-challenge by ELISA). Details: not given.
Assay type: functional
Work on `COc1ccc(C2=NN(C(C)=O)C(c3ccc(NC(=O)Nc4ccccc4OC(F)(F)F)cc3)C2)cc1OC` (stereo not given) yielded an inhibition at 10 µM of 75%. `COc1ccc(C2=NN(C(C)=O)C(c3ccc(NC(=O)Nc4ccccc4C(F)(F)F)cc3)C2)cc1OC` (stereo not given) gave an inhibition at 10 µM of 80%. Work on `COc1ccc(C2=NN(C(C)=O)C(c3ccc(NC(=O)Nc4ccc(OC(F)(F)F)cc4)cc3)C2)cc1OC` (stereo not given) yielded an inhibition at 10 µM of 11%. Work on `COc1ccc(C2=NN(C(C)=O)C(c3ccc(NS(=O)(=O)c4ccc(C)cc4)cc3)C2)cc1OC` (stereo not given) yielded an inhibition at 10 µM of 0%. `COc1ccc(C2=NN(C(C)=O)C(c3ccc(NC(=O)Nc4ccc(C(C)C)cc4)cc3)C2)cc1OC` (stereo not given) showed an inhibition at 10 µM of 16%. `COc1ccc(C2=NN(C(C)=O)C(c3ccc(NC(=S)Nc4ccccc4F)cc3)C2)cc1OC` (stereo not given) showed an inhibition at 10 µM of 84%.

Each compound was assayed on Aspergillus niger (assay: Antifungal activity against Aspergillus niger MTCC 281 after 2 to 3 days by agar well diffusion method). Details: not given.
Assay type: functional
`COc1ccc(C2=NN(C(C)=O)C(c3ccc(NC(=O)Nc4ccccc4OC(F)(F)F)cc3)C2)cc1OC` (stereo not given) was tested, and the MIC was 75 µg/mL (≈ 138 µM). With `COc1ccc(C2=NN(C(C)=O)C(c3ccc(NC(=O)Nc4ccccc4C(F)(F)F)cc3)C2)cc1OC` (stereo not given) the MIC was 90 µg/mL (≈ 171 µM). For `COc1ccc(C2=NN(C(C)=O)C(c3ccc(NC(=O)Nc4ccc(OC(F)(F)F)cc4)cc3)C2)cc1OC` (stereo not given), the MIC was 35 µg/mL (≈ 64.5 µM). With `COc1ccc(C2=NN(C(C)=O)C(c3ccc(NS(=O)(=O)c4ccc(C)cc4)cc3)C2)cc1OC` (stereo not given) the MIC was 90 µg/mL (≈ 182 µM). In the case of `COc1ccc(C2=NN(C(C)=O)C(c3ccc(NC(=O)Nc4ccc(C(C)C)cc4)cc3)C2)cc1OC` (stereo not given), the MIC is reported as 40 µg/mL (≈ 79.9 µM).

Each compound was assayed on Bacillus subtilis (assay: Antibacterial activity against Bacillus subtilis MTCC 441 after 24 hrs by agar well diffusion method). Details: MTCC 441, 24 h.
Assay type: functional
Compound `COc1ccc(C2=NN(C(C)=O)C(c3ccc(NC(=O)Nc4ccccc4OC(F)(F)F)cc3)C2)cc1OC` (stereo not given) has an MIC of 40 µg/mL (≈ 73.7 µM). With `COc1ccc(C2=NN(C(C)=O)C(c3ccc(NC(=O)Nc4ccccc4C(F)(F)F)cc3)C2)cc1OC` (stereo not given) the MIC was 90 µg/mL (≈ 171 µM). With `COc1ccc(C2=NN(C(C)=O)C(c3ccc(NC(=O)Nc4ccc(OC(F)(F)F)cc4)cc3)C2)cc1OC` (stereo not given) the MIC was 20 µg/mL (≈ 36.9 µM). `COc1ccc(C2=NN(C(C)=O)C(c3ccc(NS(=O)(=O)c4ccc(C)cc4)cc3)C2)cc1OC` (stereo not given) gave an MIC of 90 µg/mL (≈ 182 µM). For `COc1ccc(C2=NN(C(C)=O)C(c3ccc(NC(=O)Nc4ccc(C(C)C)cc4)cc3)C2)cc1OC` (stereo not given), the MIC was 40 µg/mL (≈ 79.9 µM). For `COc1ccc(C2=NN(C(C)=O)C(c3ccc(NC(=S)Nc4ccccc4F)cc3)C2)cc1OC` (stereo not given), the MIC was 80 µg/mL (≈ 162 µM).

What follows are compounds tested on Staphylococcus aureus (assay: Antibacterial activity against Staphylococcus aureus MTCC 96 after 24 hrs by agar well diffusion method). Details: MTCC 96, 24 h.
Assay type: functional
With `COc1ccc(C2=NN(C(C)=O)C(c3ccc(NC(=O)Nc4ccccc4OC(F)(F)F)cc3)C2)cc1OC` (stereo not given) the MIC was 55 µg/mL (≈ 101 µM). `COc1ccc(C2=NN(C(C)=O)C(c3ccc(NC(=O)Nc4ccccc4C(F)(F)F)cc3)C2)cc1OC` (stereo not given) gave an MIC of 75 µg/mL (≈ 142 µM). In the case of `COc1ccc(C2=NN(C(C)=O)C(c3ccc(NC(=O)Nc4ccc(OC(F)(F)F)cc4)cc3)C2)cc1OC` (stereo not given), the MIC is reported as 30 µg/mL (≈ 55.3 µM). `COc1ccc(C2=NN(C(C)=O)C(c3ccc(NS(=O)(=O)c4ccc(C)cc4)cc3)C2)cc1OC` (stereo not given) gave an MIC of 90 µg/mL (≈ 182 µM). Work on `COc1ccc(C2=NN(C(C)=O)C(c3ccc(NC(=O)Nc4ccc(C(C)C)cc4)cc3)C2)cc1OC` (stereo not given) yielded an MIC of 30 µg/mL (≈ 59.9 µM). With `COc1ccc(C2=NN(C(C)=O)C(c3ccc(NC(=S)Nc4ccccc4F)cc3)C2)cc1OC` (stereo not given) the MIC was 80 µg/mL (≈ 162 µM).

What follows are compounds tested on Aspergillus niger (assay: Antifungal activity against Aspergillus niger MTCC 281 up to 200 ug/mL after 2 to 3 days by agar well diffusion method). Details: not given.
Assay type: functional, organism-based
In the case of `COc1ccc(C2=NN(C(C)=O)C(c3ccc(NC(=S)Nc4ccccc4F)cc3)C2)cc1OC` (stereo not given), the Activity is reported as “inactive”.

What follows are compounds tested on Escherichia coli (assay: Antibacterial activity against Escherichia coli MTCC 443 after 24 hrs by agar well diffusion method). Details: MTCC 443, 24 h.
Assay type: functional
Compound `COc1ccc(C2=NN(C(C)=O)C(c3ccc(NC(=O)Nc4ccccc4OC(F)(F)F)cc3)C2)cc1OC` (stereo not given) has an MIC of 40 µg/mL (≈ 73.7 µM). `COc1ccc(C2=NN(C(C)=O)C(c3ccc(NC(=O)Nc4ccccc4C(F)(F)F)cc3)C2)cc1OC` (stereo not given) showed an MIC of 60 µg/mL (≈ 114 µM). With `COc1ccc(C2=NN(C(C)=O)C(c3ccc(NC(=O)Nc4ccc(OC(F)(F)F)cc4)cc3)C2)cc1OC` (stereo not given) the MIC was 25 µg/mL (≈ 46.1 µM). Compound `COc1ccc(C2=NN(C(C)=O)C(c3ccc(NS(=O)(=O)c4ccc(C)cc4)cc3)C2)cc1OC` (stereo not given) has an MIC of 75 µg/mL (≈ 152 µM). For `COc1ccc(C2=NN(C(C)=O)C(c3ccc(NC(=O)Nc4ccc(C(C)C)cc4)cc3)C2)cc1OC` (stereo not given), the MIC was 30 µg/mL (≈ 59.9 µM). In the case of `COc1ccc(C2=NN(C(C)=O)C(c3ccc(NC(=S)Nc4ccccc4F)cc3)C2)cc1OC` (stereo not given), the MIC is reported as 55 µg/mL (≈ 112 µM).

The compounds below were run on THP-1 (assay: Antiinflammatory activity in human THP1 cells assessed as inhibition of LPS-stimulated TNFalpha production at 10 uM incubated for 30 mins prior to LPS-challenge measured 24 hrs post LPS challenge by ELISA). Details: not given.
Assay type: functional
Work on `COc1ccc(C2=NN(C(C)=O)C(c3ccc(NC(=O)Nc4ccccc4OC(F)(F)F)cc3)C2)cc1OC` (stereo not given) yielded an inhibition at 10 µM of 58%. `COc1ccc(C2=NN(C(C)=O)C(c3ccc(NC(=O)Nc4ccccc4C(F)(F)F)cc3)C2)cc1OC` (stereo not given) was tested, and the inhibition at 10 µM was 61%. `COc1ccc(C2=NN(C(C)=O)C(c3ccc(NC(=O)Nc4ccc(OC(F)(F)F)cc4)cc3)C2)cc1OC` (stereo not given) was tested, and the inhibition at 10 µM was 8%. Compound `COc1ccc(C2=NN(C(C)=O)C(c3ccc(NS(=O)(=O)c4ccc(C)cc4)cc3)C2)cc1OC` (stereo not given) has an inhibition at 10 µM of 0%. Compound `COc1ccc(C2=NN(C(C)=O)C(c3ccc(NC(=O)Nc4ccc(C(C)C)cc4)cc3)C2)cc1OC` (stereo not given) has an inhibition at 10 µM of 11%. Compound `COc1ccc(C2=NN(C(C)=O)C(c3ccc(NC(=S)Nc4ccccc4F)cc3)C2)cc1OC` (stereo not given) has an inhibition at 10 µM of 78%.

The compounds below were run on Fusarium solani (assay: Antifungal activity against Fusarium solani MTCC 350 after 2 to 3 days by agar well diffusion method). Details: not given.
Assay type: functional
For `COc1ccc(C2=NN(C(C)=O)C(c3ccc(NC(=O)Nc4ccccc4OC(F)(F)F)cc3)C2)cc1OC` (stereo not given), the MIC was 60 µg/mL (≈ 111 µM). `COc1ccc(C2=NN(C(C)=O)C(c3ccc(NC(=O)Nc4ccccc4C(F)(F)F)cc3)C2)cc1OC` (stereo not given) showed an MIC of 75 µg/mL (≈ 142 µM). Work on `COc1ccc(C2=NN(C(C)=O)C(c3ccc(NC(=O)Nc4ccc(OC(F)(F)F)cc4)cc3)C2)cc1OC` (stereo not given) yielded an MIC of 20 µg/mL (≈ 36.9 µM). Compound `COc1ccc(C2=NN(C(C)=O)C(c3ccc(NS(=O)(=O)c4ccc(C)cc4)cc3)C2)cc1OC` (stereo not given) has an MIC of 65 µg/mL (≈ 132 µM). `COc1ccc(C2=NN(C(C)=O)C(c3ccc(NC(=O)Nc4ccc(C(C)C)cc4)cc3)C2)cc1OC` (stereo not given) was tested, and the MIC was 20 µg/mL (≈ 40 µM). Compound `COc1ccc(C2=NN(C(C)=O)C(c3ccc(NC(=S)Nc4ccccc4F)cc3)C2)cc1OC` (stereo not given) has an MIC of 90 µg/mL (≈ 183 µM).

What follows are compounds tested on Salmonella typhimurium (assay: Antibacterial activity against Salmonella typhimurium MTCC 98 after 24 hrs by agar well diffusion method). Details: Salmonella enterica, MTCC 98, 24 h.
Assay type: functional, Salmonella enterica subsp. enterica serovar Typhimurium
Work on `COc1ccc(C2=NN(C(C)=O)C(c3ccc(NC(=O)Nc4ccccc4OC(F)(F)F)cc3)C2)cc1OC` (stereo not given) yielded an MIC of 60 µg/mL (≈ 111 µM). `COc1ccc(C2=NN(C(C)=O)C(c3ccc(NC(=O)Nc4ccccc4C(F)(F)F)cc3)C2)cc1OC` (stereo not given) was tested, and the MIC was 90 µg/mL (≈ 171 µM). `COc1ccc(C2=NN(C(C)=O)C(c3ccc(NC(=O)Nc4ccc(OC(F)(F)F)cc4)cc3)C2)cc1OC` (stereo not given) was tested, and the MIC was 45 µg/mL (≈ 82.9 µM). `COc1ccc(C2=NN(C(C)=O)C(c3ccc(NS(=O)(=O)c4ccc(C)cc4)cc3)C2)cc1OC` (stereo not given) showed an MIC of 90 µg/mL (≈ 182 µM). `COc1ccc(C2=NN(C(C)=O)C(c3ccc(NC(=O)Nc4ccc(C(C)C)cc4)cc3)C2)cc1OC` (stereo not given) showed an MIC of 55 µg/mL (≈ 110 µM). Work on `COc1ccc(C2=NN(C(C)=O)C(c3ccc(NC(=S)Nc4ccccc4F)cc3)C2)cc1OC` (stereo not given) yielded an MIC of 90 µg/mL (≈ 183 µM).
